Experimental findings from patent US20250270198A1, “PYRIDONE COMPOUNDS AS TRPA1 INHIBITORS” (D. E. Shaw Research, LLC, priority 2022, published 2025) are described below.

One experiment concerns the target hERG channel (Homo sapiens (Human), UniProt Q12809). Kind of experiment: hERG activity, automated patch clamp (SyncroPatch). It counts as cell-based. Particulars: CHO-K1 cells stably expressing hERG, tail current at −50 mV, compounds at 50 μM and 100 μM. Here is the method: This assay was used to evaluate the disclosed compounds' inhibition activities against the hERG channel.
CHO-K1 cells stably expressing hERG were grown in Ham's F-12 Medium with Glutamine containing 10% heat-inactivated FBS, 1% Penicillin/Streptomycin, Hygromycin (100 μg/ml), and G418 (100 μg/ml). Cells used for electrophysiology were plated in plastic culture flasks and grown at 37° C. in a 5% CO2-humidified incubator per ChanPharm SOP. Stocks were maintained in cryogenic storage.
The cells were bathed in an extracellular solution containing 140 mM NaCl, 4 mM KCl, 2 mM CaCl2), 1 mM MgCl2, 5 mM Glucose, and 10 mM HEPES; pH adjusted to 7.4 with NaOH; 295-305 mOsm. The internal solution contained 10 mM KCl, 110 mM KF, 10 mM NaCl, 10 mM EGTA, 10 mM HEPES; pH adjusted to 7.2 with KOH; 280-285 mOsm. All compounds were dissolved in DMSO at 30 mM. Compound stock solutions were freshly diluted with external solution to concentrations of 50 μM and 100 μM. The highest content of DMSO […].
All experiments were performed at room temperature. Each cell acted as its own control. In preparation for a recording session, intracellular solution (see above) was loaded into the intracellular compartments of the automated patch clamp platform SyncroPatch (Nanion) chip and the cell suspension was pipetted into the extracellular compartments. After establishment of a whole-cell configuration, membrane current recordings, and compound application were enabled by means of the SyncroPatch. hERG currents were elicited by a voltage pulse pattern with fixed amplitudes (depolarization: +20 mV amplitude, 300 ms duration; repolarization: −50 mV, 300 ms duration) repeated at 3 s intervals from a holding potential of −80 mV.
Data acquisition and analysis were performed using DataControl384 (Nanion's proprietary software). To determine the (percentage) inhibition, the last single pulse in the pulse train (i.e., the repolarization step to −50 mV; tail current) at a given compound concentration was used. AUC and peak values, obtained in the presence of compound, were normalized to control values in the absence of compound.
Background: Block of hERG is tested as a sign of cardiac risk.

In another experiment the target is human TRPA1 channel (Homo sapiens (Human), UniProt O75762). Kind of experiment: TRPA1 inhibitor activity, automated patch clamp (SyncroPatch). Type of experiment: cell-based. The settings on record: CHO cells inducibly expressing human TRPA1, currents elicited by carvacrol (300 μM), holding potential −60 mV. The method, then: This assay was used to evaluate the disclosed compounds' inhibition activities against the human TRPA1 channel.
human TRPA1 channel, sequence (O75762 whole entry): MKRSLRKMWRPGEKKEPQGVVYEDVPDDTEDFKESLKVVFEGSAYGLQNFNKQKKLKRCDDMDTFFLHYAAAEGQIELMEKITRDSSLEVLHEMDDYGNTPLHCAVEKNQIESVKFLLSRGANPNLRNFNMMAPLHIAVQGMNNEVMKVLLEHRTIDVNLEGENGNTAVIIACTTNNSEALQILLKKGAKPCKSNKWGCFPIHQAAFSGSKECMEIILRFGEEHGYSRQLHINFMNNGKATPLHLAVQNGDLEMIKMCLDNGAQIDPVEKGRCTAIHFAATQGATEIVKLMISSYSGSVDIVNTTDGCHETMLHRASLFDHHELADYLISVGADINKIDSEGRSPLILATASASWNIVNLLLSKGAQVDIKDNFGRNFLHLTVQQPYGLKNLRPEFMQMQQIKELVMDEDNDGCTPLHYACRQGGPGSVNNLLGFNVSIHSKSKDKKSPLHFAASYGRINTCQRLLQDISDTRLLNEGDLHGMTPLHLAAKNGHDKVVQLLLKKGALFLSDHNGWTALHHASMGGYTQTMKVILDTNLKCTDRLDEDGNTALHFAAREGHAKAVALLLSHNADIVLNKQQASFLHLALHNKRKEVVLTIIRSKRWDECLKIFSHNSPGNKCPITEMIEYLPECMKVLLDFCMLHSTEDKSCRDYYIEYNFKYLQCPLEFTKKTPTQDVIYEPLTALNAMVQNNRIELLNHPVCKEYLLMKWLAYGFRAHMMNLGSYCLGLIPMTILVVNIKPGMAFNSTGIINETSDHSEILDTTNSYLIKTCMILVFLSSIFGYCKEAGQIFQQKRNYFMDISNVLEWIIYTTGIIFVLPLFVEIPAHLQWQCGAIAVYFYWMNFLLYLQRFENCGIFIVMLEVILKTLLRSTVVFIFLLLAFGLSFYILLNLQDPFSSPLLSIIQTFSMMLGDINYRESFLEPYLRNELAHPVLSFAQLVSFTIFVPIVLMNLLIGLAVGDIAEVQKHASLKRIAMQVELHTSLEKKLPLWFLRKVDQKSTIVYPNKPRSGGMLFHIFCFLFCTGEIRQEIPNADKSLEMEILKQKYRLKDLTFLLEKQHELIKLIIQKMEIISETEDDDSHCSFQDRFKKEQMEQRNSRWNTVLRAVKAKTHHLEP
CHO cells inducibly expressing human TRPA1 were grown in DMEM containing 10% heat-inactivated FBS, 1 mM Sodium Pyruvate, 2 mM L-Glutamine, Zeocin (100 μg/ml) and Blasticidin (10 μg/ml). Expression was induced by addition of Doxycycline (1 μg/ml) 24 hours before experiments. Cells used for electrophysiology were plated in plastic culture flasks and grown at 37° C. in a 5% CO2-humidified tissue culture incubator per ChanPharm SOP. Stocks were maintained in cryogenic storage.
The cells were bathed in an extracellular solution containing 80 mM NaCl, 60 mM NMDG, 4 mM KCl, 2 mM CaCl2), 6 mM MgCl2, 5 mM Glucose. 10 mM HEPES, 3 mM HEDTA; pH adjusted to 7.4 with NaOH; 305-310 mOsm. All compounds were dissolved in DMSO at 30 mM. The internal solution contained 10 mM CsCl, 110 mM CsF, 10 mM NaCl, 10 mM EGTA, 10 mM HEPES, 4 mM MgATP, 0.25 mM NaGTP, 4 mM BAPTA; pH adjusted to 7.2 with CsOH; 285-290 mOsm. Compound stock solutions were freshly diluted with external solution to concentrations of 3 nM, 10 nM 30 nM, 100 nM, 300 nM, 1 μM, 3 μM, 10 μM, and 30 μM. The highest content of DMSO (0.1%) was present at 30 μM.
All experiments were performed at room temperature. Each cell acted as its own control. In preparation for a current recording session, intracellular solution (see above) was loaded into the intracellular compartments of the automated patch clamp platform SyncroPatch (Nanion) chip and the cell suspension was pipetted into the extracellular compartments. After establishment of a whole-cell configuration, membrane current recordings and compound application were enabled by means of the SyncroPatch. TRPA1 currents were elicited by application of carvacrol (300 μM) at a constant holding potential of −60 mV (see Table A below).
To determine IC50 values, AUC and peak values, obtained in the presence of a given compound concentration, were normalized to control values in absence of compound. Using DataControl384 (Nanion's proprietary software), IC50 values were derived by fitting the normalized data to the Hill equation.
A general note: In patch-clamp work, channel activity is measured electrically.

hERG channel, sequence (Q12809 whole entry): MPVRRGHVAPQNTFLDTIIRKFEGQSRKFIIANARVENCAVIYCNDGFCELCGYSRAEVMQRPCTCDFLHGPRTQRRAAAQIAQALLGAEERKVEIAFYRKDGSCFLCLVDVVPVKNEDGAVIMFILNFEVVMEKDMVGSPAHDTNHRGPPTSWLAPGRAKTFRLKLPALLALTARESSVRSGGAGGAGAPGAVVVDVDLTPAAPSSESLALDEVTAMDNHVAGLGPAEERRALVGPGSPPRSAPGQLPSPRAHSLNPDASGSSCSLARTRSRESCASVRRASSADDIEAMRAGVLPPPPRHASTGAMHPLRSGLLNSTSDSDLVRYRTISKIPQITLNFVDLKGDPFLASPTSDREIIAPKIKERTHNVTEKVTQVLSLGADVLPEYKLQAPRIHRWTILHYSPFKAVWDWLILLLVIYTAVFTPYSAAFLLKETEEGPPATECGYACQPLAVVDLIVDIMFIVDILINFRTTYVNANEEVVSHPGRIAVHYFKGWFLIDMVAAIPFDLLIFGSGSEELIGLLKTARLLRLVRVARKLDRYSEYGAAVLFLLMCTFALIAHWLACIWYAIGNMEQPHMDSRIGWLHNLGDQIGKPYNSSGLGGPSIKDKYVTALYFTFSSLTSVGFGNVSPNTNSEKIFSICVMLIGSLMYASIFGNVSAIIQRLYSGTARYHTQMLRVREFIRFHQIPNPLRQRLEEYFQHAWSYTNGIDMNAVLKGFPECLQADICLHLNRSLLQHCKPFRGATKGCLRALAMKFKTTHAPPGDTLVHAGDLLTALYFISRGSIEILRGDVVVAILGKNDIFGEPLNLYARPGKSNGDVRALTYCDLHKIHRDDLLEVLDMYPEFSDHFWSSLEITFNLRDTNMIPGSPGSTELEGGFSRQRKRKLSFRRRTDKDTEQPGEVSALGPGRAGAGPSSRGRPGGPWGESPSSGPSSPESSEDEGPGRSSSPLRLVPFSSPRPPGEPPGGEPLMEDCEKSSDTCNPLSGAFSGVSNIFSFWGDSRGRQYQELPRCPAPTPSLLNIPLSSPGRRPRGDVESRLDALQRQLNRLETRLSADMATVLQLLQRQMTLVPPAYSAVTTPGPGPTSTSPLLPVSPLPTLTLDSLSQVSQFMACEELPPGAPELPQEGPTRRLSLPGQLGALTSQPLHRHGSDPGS

Consider `Cc1cc(C(N)=O)cn(Cc2nc(CCc3ccc(Cl)cc3)no2)c1=O` [Compound 4, 1-({3-[2-(4-chlorophenyl)ethyl]-1,2,4-oxadiazol-5-yl}methyl)-5-methyl-6-oxopyridine-3-carboxamide], for which the IC50 (in general, the concentration that gives 50% inhibition) at hERG channel (Table 4) is more than 50 µM; against human TRPA1 channel (Table 4), less than 1 µM.
Take `NC(=O)c1cc(Cl)c(=O)n(Cc2nc(CCc3ccc(Cl)cc3)no2)c1` [Compound 6, 5-chloro-1-((3-(4-chlorophenethyl)-1,2,4-oxadiazol-5-yl)methyl)-6-oxo-1,6-dihydropyridine-3-carboxamide]: the 50% inhibitory concentration (IC50) at hERG channel (Table 4) was less than 50 µM; at human TRPA1 channel (Table 4), less than 0.3 µM.
For the compound `Cc1cc(-c2cn[nH]c2)cn(Cc2nc(CCc3ccc(Cl)cc3)no2)c1=O` [Compound 8, 1-((3-(4-chlorophenethyl)-1,2,4-oxadiazol-5-yl)methyl)-3-methyl-5-(1H-pyrazol-4-yl)pyridin-2(1H)-one], the IC50 at hERG channel (Table 4) is less than 50 µM; against human TRPA1 channel (Table 4), less than 10 µM.
On to `Nc1ccn(Cc2nc(C[C@H](O)c3ccc(Cl)cc3)no2)c(=O)c1Cl` [Compound 14, (S)-4-amino-3-chloro-1-((3-(2-(4-chlorophenyl)-2-hydroxyethyl)-1,2,4-oxadiazol-5-yl)methyl)pyridin-2(1H)-one], for which the results for the concentration for half-maximal inhibition (IC50) on hERG channel (Table 4) and at human TRPA1 channel (Table 4) were more than 50 µM and less than 3 µM, respectively.
For `O=c1c(Cl)c(CO)ccn1Cc1nc(C[C@H](O)c2ccc(Cl)cc2)no1` [Compound 17, (S)-3-chloro-1-((3-(2-(4-chlorophenyl)-2-hydroxyethyl)-1,2,4-oxadiazol-5-yl)methyl)-4-(hydroxymethyl)pyridin-2(1H)-one], in that order: more than 50 µM and less than 1 µM.
`Cn1cc(-c2ccn(Cc3nc(C[C@H](O)c4ccc(Cl)cc4)no3)c(=O)c2Cl)cn1` [Compound 18, (S)-3-chloro-1-((3-(2-(4-chlorophenyl)-2-hydroxyethyl)-1,2,4-oxadiazol-5-yl)methyl)-4-(1-methyl-1H-pyrazol-4-yl)pyridin-2(1H)-one]: the IC50 on hERG channel (Table 4) was less than 50 µM; against human TRPA1 channel (Table 4) it was less than 1 µM.
For `O=c1c(Cl)nccn1Cc1nc(C[C@H](O)c2ccc(Cl)cc2)no1` [Compound 22, (S)-3-chloro-1-((3-(2-(4-chlorophenyl)-2-hydroxyethyl)-1,2,4-oxadiazol-5-yl)methyl)pyrazin-2(1H)-one], the half-maximal inhibitory concentration (IC50) is less than 50 µM against hERG channel (Table 4) and less than 0.3 µM against human TRPA1 channel (Table 4).
As to `NC(=O)c1cn(Cc2nc(C[C@H](O)c3ccc(Cl)cc3)no2)c(=O)c(Cl)n1` [Compound 26, (S)-6-chloro-4-((3-(2-(4-chlorophenyl)-2-hydroxyethyl)-1,2,4-oxadiazol-5-yl)methyl)-5-oxo-4,5-dihydropyrazine-2-carboxamide], the figures for the IC50 at hERG channel (Table 4) and against human TRPA1 channel (Table 4) were more than 50 µM and less than 1 µM, respectively.
Take `Cc1nc(Br)cn(Cc2nc(C[C@H](O)c3ccc(Cl)cc3)no2)c1=O` [Compound 27, (S)-5-bromo-1-((3-(2-(4-chlorophenyl)-2-hydroxyethyl)-1,2,4-oxadiazol-5-yl)methyl)-3-methylpyrazin-2(1H)-one]: the IC50 against hERG channel (Table 4) is less than 50 µM; against human TRPA1 channel (Table 4), less than 0.3 µM.
Consider `Cc1nc(C(N)=O)cn(Cc2nc(C[C@H](O)c3ccc(Cl)cc3)no2)c1=O` [Compound 29, 4-({3-[(2S)-2-(4-chlorophenyl)-2-hydroxyethyl]-1,2,4-oxadiazol-5-yl}methyl)-6-methyl-5-oxopyrazine-2-carboxamide], for which the 50% inhibitory concentration (IC50) against hERG channel (Table 4) is more than 50 µM; against human TRPA1 channel (Table 4), less than 0.3 µM.
In the case of `Cc1c(CN)ncn(Cc2nc(CCc3ccc(Cl)cc3)no2)c1=O` [Compound 30, 6-(aminomethyl)-3-((3-(4-chlorophenethyl)-1,2,4-oxadiazol-5-yl)methyl)-5-methylpyrimidin-4(3H)-one], the concentration for half-maximal inhibition (IC50) was less than 50 µM against hERG channel (Table 4) and less than 0.3 µM at human TRPA1 channel (Table 4).
On to `O=c1c(Cl)c(-c2cn[nH]c2)ncn1Cc1nc(C[C@H](O)c2ccc(Cl)cc2)no1` [Compound 35, (S)-5-chloro-3-((3-(2-(4-chlorophenyl)-2-hydroxyethyl)-1,2,4-oxadiazol-5-yl)methyl)-6-(1H-pyrazol-4-yl)pyrimidin-4(3H)-one], for which the half-inhibitory concentration (IC50) against hERG channel (Table 4) was less than 50 µM; against human TRPA1 channel (Table 4), less than 0.3 µM.
In the case of `Cc1ncn(Cc2nc(C[C@H](O)c3ccc(Cl)cc3)no2)c(=O)c1Cl` [Compound 36, (S)-5-chloro-3-((3-(2-(4-chlorophenyl)-2-hydroxyethyl)-1,2,4-oxadiazol-5-yl)methyl)-6-methylpyrimidin-4(3H)-one], the results for the 50% inhibitory concentration (IC50) against hERG channel (Table 4) and against human TRPA1 channel (Table 4) were more than 50 µM and less than 0.1 µM, respectively.
Regarding `O=c1c(Cl)c(CO)ncn1Cc1nc(C[C@H](O)c2ccc(Cl)cc2)no1` [Compound 54, (S)-5-chloro-3-((3-(2-(4-chlorophenyl)-2-hydroxyethyl)-1,2,4-oxadiazol-5-yl)methyl)-6-(hydroxymethyl)pyrimidin-4(3H)-one], the half-maximal inhibitory concentration (IC50) is more than 50 µM against hERG channel (Table 5) and less than 0.3 µM at human TRPA1 channel (Table 5).
As to `Cc1c(Cl)ncn(Cc2nc(C[C@H](O)c3ccc(Cl)cc3)no2)c1=O` [Compound 58, (S)-6-chloro-3-((3-(2-(4-chlorophenyl)-2-hydroxyethyl)-1,2,4-oxadiazol-5-yl)methyl)-5-methylpyrimidin-4(3H)-one], the concentration for half-maximal inhibition (IC50) is more than 50 µM on hERG channel (Table 5) and less than 0.1 µM against human TRPA1 channel (Table 5).
In the same order, the values of `N#Cc1ncn(Cc2nc(C[C@H](O)c3ccc(Cl)cc3)no2)c(=O)c1Cl` [Compound 63, 5-chloro-1-({3-[(2S)-2-(4-chlorophenyl)-2-hydroxyethyl]-1,2,4-oxadiazol-5-yl}methyl)-6-oxopyrimidine-4-carbonitrile] are less than 50 µM and less than 0.1 µM.
`Cc1c(-c2cn[nH]c2)ncn(Cc2nc(C[C@H](O)c3ccc(Cl)cc3)no2)c1=O` [Compound 65, (S)-3-((3-(2-(4-chlorophenyl)-2-hydroxyethyl)-1,2,4-oxadiazol-5-yl)methyl)-5-methyl-6-(1H-pyrazol-4-yl)pyrimidin-4(3H)-one]: the 50% inhibitory concentration (IC50) is less than 50 µM against hERG channel (Table 5) and less than 0.3 µM at human TRPA1 channel (Table 5).
For `Nc1c(Cl)ncn(Cc2nc(C[C@H](O)c3ccc(Cl)cc3)no2)c1=O` [Compound 66, (S)-5-amino-6-chloro-3-((3-(2-(4-chlorophenyl)-2-hydroxyethyl)-1,2,4-oxadiazol-5-yl)methyl)pyrimidin-4(3H)-one], the IC50 is more than 50 µM at hERG channel (Table 5) and less than 0.3 µM at human TRPA1 channel (Table 5).
In the same order, the values of `O=c1c(Br)c(Cl)ncn1Cc1nc(C[C@H](O)c2ccc(Cl)cc2)no1` [Compound 67, (S)-5-bromo-6-chloro-3-((3-(2-(4-chlorophenyl)-2-hydroxyethyl)-1,2,4-oxadiazol-5-yl)methyl)pyrimidin-4(3H)-one] are less than 50 µM and less than 0.1 µM.
Turning to `COc1ncn(Cc2nc(C[C@H](O)c3ccc(Cl)cc3)no2)c(=O)c1Cl` [Compound 70, (S)-5-chloro-3-((3-(2-(4-chlorophenyl)-2-hydroxyethyl)-1,2,4-oxadiazol-5-yl)methyl)-6-methoxypyrimidin-4(3H)-one], the IC50 was more than 50 µM on hERG channel (Table 5) and less than 0.3 µM on human TRPA1 channel (Table 5).
